Assay results published in ChEMBL document CHEMBL1146302, “Highly constrained bicyclic VLA-4 antagonists” (Bioorg Med Chem Lett, 2007).
Active and inactive are the calls of the source. No cut-off for these calls is given here.

Columns and labels:
Integrin alpha-4/beta-1 [1] = target: T1, Integrin alpha-4/beta-1 (Homo sapiens, UniProt P05556+P13612); test: Binding affinity to human VLA4 alpha4beta1 in Jurkat cells; type: cell-based
Integrin alpha-4/beta-1 [2] = target: T1, Integrin alpha-4/beta-1; test: Displacement of [125I]VCAM-Ig from human VLA4 alpha-4-beta-1 in Jurkat cells at 100 uM; type: cell-based
[3] = Clearance in Sprague-Dawley rat plasma at 1 mg/kg, iv by cassette-dosing assay; type: ADME, organism-based; design: dose 1 mg/kg, route intravenous
[4] = Half life in Sprague-Dawley rat plasma at 2 mg/kg, po by cassette-dosing assay; type: ADME, organism-based; design: dose 2 mg/kg, route oral
[5] = Half life in Sprague-Dawley rat plasma at 1 mg/kg, iv by cassette-dosing assay; type: ADME, organism-based; design: dose 1 mg/kg, route intravenous
[6] = Bioavailability in Sprague-Dawley rat at 2 mg/kg, po by cassette-dosing assay; type: ADME, organism-based; details: in vivo
Integrin alpha-4/beta-7 = target: T2, Integrin alpha-4/beta-7 (Homo sapiens, UniProt P13612+P26010); test: Binding affinity to human integrin alpha-4-beta-7 in Jurkat cells; type: cell-based
T2 sequence (P13612 whole entry): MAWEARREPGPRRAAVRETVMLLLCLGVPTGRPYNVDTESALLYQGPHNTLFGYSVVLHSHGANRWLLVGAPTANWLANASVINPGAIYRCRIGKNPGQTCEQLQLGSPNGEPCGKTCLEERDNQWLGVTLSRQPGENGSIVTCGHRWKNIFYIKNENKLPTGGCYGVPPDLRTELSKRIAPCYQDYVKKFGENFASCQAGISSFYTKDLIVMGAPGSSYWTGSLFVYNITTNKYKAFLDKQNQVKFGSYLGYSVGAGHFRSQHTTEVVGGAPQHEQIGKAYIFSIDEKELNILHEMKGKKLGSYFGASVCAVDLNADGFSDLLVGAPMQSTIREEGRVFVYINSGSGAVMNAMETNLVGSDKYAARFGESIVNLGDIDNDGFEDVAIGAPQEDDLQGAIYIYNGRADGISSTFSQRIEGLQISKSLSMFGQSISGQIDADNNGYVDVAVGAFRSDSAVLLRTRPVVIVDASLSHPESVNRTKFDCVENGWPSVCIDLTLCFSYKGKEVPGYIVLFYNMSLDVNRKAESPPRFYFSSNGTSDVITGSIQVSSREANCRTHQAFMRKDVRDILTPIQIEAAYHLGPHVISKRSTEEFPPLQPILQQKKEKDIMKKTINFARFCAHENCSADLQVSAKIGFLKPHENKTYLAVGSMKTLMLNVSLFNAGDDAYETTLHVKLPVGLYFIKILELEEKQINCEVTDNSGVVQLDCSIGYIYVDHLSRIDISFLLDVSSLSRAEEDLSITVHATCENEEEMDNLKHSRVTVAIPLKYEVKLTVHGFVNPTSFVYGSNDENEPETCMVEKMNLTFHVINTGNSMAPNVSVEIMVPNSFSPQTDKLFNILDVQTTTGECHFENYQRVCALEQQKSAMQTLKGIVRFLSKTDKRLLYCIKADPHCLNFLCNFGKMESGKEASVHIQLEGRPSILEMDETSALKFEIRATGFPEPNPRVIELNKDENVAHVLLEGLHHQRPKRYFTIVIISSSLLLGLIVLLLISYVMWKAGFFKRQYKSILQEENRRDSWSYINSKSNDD
T2 sequence (P26010 whole entry): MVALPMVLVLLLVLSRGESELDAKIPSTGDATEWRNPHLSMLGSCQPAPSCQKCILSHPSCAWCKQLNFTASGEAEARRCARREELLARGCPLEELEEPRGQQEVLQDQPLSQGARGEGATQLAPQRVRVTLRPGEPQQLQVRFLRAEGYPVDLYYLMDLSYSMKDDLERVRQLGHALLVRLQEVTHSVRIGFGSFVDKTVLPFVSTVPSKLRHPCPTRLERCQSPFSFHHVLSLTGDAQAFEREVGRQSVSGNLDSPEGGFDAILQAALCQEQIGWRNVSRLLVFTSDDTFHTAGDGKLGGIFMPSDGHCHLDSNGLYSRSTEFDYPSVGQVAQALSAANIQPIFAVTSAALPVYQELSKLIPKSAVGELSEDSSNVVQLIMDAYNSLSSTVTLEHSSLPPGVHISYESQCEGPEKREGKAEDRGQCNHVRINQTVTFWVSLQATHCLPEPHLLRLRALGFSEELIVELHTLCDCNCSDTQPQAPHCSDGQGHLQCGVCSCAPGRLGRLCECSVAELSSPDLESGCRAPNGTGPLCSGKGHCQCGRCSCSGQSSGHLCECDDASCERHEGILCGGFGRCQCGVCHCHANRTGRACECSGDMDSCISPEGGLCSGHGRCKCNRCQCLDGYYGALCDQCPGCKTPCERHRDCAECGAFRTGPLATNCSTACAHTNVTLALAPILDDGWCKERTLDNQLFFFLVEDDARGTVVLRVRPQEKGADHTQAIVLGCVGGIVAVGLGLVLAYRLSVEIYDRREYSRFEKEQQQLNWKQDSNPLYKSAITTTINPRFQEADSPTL

T1 sequence (P05556 whole entry, one chain of several): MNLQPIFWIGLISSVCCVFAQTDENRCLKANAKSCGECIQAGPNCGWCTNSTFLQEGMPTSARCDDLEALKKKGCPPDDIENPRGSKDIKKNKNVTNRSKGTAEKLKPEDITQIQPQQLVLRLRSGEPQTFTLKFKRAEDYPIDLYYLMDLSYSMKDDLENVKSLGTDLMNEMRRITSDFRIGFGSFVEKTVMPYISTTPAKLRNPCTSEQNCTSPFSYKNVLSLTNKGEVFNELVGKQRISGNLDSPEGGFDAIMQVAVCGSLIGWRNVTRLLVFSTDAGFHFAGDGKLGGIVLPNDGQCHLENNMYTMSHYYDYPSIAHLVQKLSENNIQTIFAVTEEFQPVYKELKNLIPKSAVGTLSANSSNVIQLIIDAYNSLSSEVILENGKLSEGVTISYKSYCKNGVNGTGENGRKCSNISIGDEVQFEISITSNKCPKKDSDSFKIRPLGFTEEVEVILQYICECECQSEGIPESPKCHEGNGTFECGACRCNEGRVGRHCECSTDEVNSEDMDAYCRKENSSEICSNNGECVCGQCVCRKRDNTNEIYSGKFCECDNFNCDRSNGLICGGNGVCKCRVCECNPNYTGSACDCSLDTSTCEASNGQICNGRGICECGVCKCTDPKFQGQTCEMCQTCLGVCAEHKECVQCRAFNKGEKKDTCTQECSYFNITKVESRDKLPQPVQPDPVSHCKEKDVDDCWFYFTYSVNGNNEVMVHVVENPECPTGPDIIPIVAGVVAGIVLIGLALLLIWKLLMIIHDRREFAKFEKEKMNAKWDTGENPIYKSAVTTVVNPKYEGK

Row | IC50 (Integrin alpha-4/beta-1 [1]) [nM] | Compound | other results
1 | 1490 | O=C(O)C1C2CCC(C2)[C@H]1NC(=O)[C@@H]1CCCN1S(=O)(=O)c1cc(Cl)cc(Cl)c1 (stereo partly drawn) [listing 1 of 2 here] | 
2 |  | O=C(O)Cc1cccc(NC(=O)[C@@H]2CCCN2S(=O)(=O)c2cc(Cl)cc(Cl)c2)c1 | Activity (Integrin alpha-4/beta-1 [2]): 43%
3 | 1600 | O=C(O)[C@@H]1C2CCC(C2)[C@@H]1NC(=O)[C@@H]1CCCN1S(=O)(=O)c1cc(Cl)cc(Cl)c1 (stereo partly drawn) | 
4 | 525 | O=C(O)[C@H]1CCCC[C@@H]1NC(=O)[C@@H]1CCCN1S(=O)(=O)c1cc(Cl)cc(Cl)c1 | 
5 | 322 | O=C(O)C1C2CCC(C2)[C@@H]1NC(=O)[C@@H]1CCCN1S(=O)(=O)c1cc(Cl)cc(Cl)c1 (stereo partly drawn) [listing 1 of 2 here] | 
6 | 2740 | O=C(O)[C@H]1C2CCC(CC2)[C@@H]1NC(=O)[C@@H]1CCCN1S(=O)(=O)c1cc(Cl)cc(Cl)c1 | 
7 | 2160 | O=C(O)C1C2C=CC(C2)[C@@H]1NC(=O)[C@@H]1CCCN1S(=O)(=O)c1cc(Cl)cc(Cl)c1 (stereo partly drawn) [listing 1 of 2 here] | 
8 |  | O=C(O)c1ccccc1NC(=O)[C@@H]1CCCN1S(=O)(=O)c1cc(Cl)cc(Cl)c1 | Activity (Integrin alpha-4/beta-1 [2]): 0%
9 | 657 | O=C(O)C1C2C=CC(C2)[C@@H]1NC(=O)[C@@H]1CCCN1S(=O)(=O)c1cc(Cl)cc(Cl)c1 (stereo partly drawn) [listing 2 of 2 here] | 
10 |  | O=C(O)c1cccc(NC(=O)[C@@H]2CCCN2S(=O)(=O)c2cc(Cl)cc(Cl)c2)c1 | Activity (Integrin alpha-4/beta-1 [2]): 2%
11 |  | O=C(CN(C1CCCCC1)S(=O)(=O)c1cc(Cl)cc(Cl)c1)NC1CCCCC1C(=O)O (stereo not drawn) | Activity (Integrin alpha-4/beta-1 [2]): inactive
12 | 299 | O=C(O)C1C2CCC(C2)[C@H]1NC(=O)[C@@H]1CCCN1S(=O)(=O)c1cc(Cl)cc(Cl)c1 (stereo partly drawn) [listing 2 of 2 here] | 
13 | 95 | O=C(O)C1C2CCC(C2)[C@@H]1NC(=O)[C@@H]1CCCN1S(=O)(=O)c1cc(Cl)cc(Cl)c1 (stereo partly drawn) [listing 2 of 2 here] | 
14 | 25600 | O=C(O)[C@H]1C2CCC(O2)[C@@H]1NC(=O)[C@@H]1CCCN1S(=O)(=O)c1cc(Cl)cc(Cl)c1 (stereo partly drawn) | 
15 | 54 | O=C(O)[C@H]1C2CCC(C2)[C@@H]1NC(=O)[C@@H]1CCCN1S(=O)(=O)c1cc(Cl)cc(Cl)c1 (stereo partly drawn) | clearance [3]: 3.3 mL/min/kg; half-life [4]: 1.7 h; half-life [5]: 1.9 h; bioavailability [6]: 49%; IC50 (Integrin alpha-4/beta-7): 13000 nM
16 | 9460 | O=C(O)[C@H]1CCCC[C@H]1NC(=O)[C@@H]1CCCN1S(=O)(=O)c1cc(Cl)cc(Cl)c1 | 
17 | 462 | CC(C)[C@@H](C(=O)NC1CCCCC1C(=O)O)N(C)S(=O)(=O)c1cc(Cl)cc(Cl)c1 (stereo partly drawn) | 
18 |  | O=C(O)Cc1ccccc1NC(=O)[C@@H]1CCCN1S(=O)(=O)c1cc(Cl)cc(Cl)c1 | Activity (Integrin alpha-4/beta-1 [2]): 11%
